Measurements: patent US7473790B2 (Pfizer Inc., priority 2003, dated 2009)
pIC50: −log10 of the molar value.

Target: T1, HCV polymerase (Hepatitis C virus genotype 1b, UniProt P26663)
T1 construct: 2.5 pmoles (0.15 μg) HCV polymerase protein in a final volume of 75 μL
Experiment: HCV polymerase primer/template-directed transcription assay (32P-GTP incorporation, filter binding)
Assay type: biochemical
Conditions: for pIC50: recombinant HCV polymerase, 30 minutes at 30° C., concentration giving 50% inhibition of polymerase-directed transcription, read-out: IC50; for inhibition at 20 µM: @ 20 uM compound, given where IC50 was impractical to calculate, read-out: percent inhibition
Method: The compounds described herein were tested for activity with HCV polymerase. Recombinant HCV polymerase was tested for its ability to perform primer/template-directed transcription in assays that contained 30 mM tris-HCl pH 7.2, 10 mM MgCl2, 20 mM NaCl, 1 mM Dithiothreitol (DTT), 0.05% Tween-20, 1% glycerol, 5 pmoles biotin-dG12 (primer), 0.5 pmoles poly(rC)300 (template), 1 μM GTP, 0.1-0.3 uCi α-^32P-GTP, and 2.5 pmoles (0.15 μg) HCV polymerase protein in a final volume of 75 μL. Reactions were initiated by addition of enzyme and incubated 30 minutes at 30° C. Reactions were stopped by addition of 33 mM EDTA, and polynucleotide products were collected by filtration through Diethylaminoethyl (DE) Filtermat papers (Wallac). Unincorporated triphosphate was removed by washing the filters with 5% dibasic sodium phosphate. The filters were counted in a Packard Tri-Lux Microbeta scintillation counter (Packard Bioscience, Meriden, Conn.). Compounds to be tested were added at various concentrations, e.g., 1 μm to 50 μm, from stocks in 10% DMSO-water (final DMSO is 1% in reaction).
IC50 values were estimated from the primary cpm data (collected in triplicate) using the formula: cpm (I)=cpm(no inhibitor)(1−([I]/([I]+IC50))). An IC50 value represents the concentration (in μM) of a compound that provides 50% inhibition of polymerase-directed transcription in the above assay. A percent inhibition value is expressed for a compound where it was impractical to calculate an IC50 value with available data. If the IC50 estimated by the above equation was less than 200 nM, it was recalculated using the following equation, which takes into account the enzyme concentration (30 nM) in the assay: cpm(I)=cpm(no inhibitor)(1−((((I+IC50+30e−9)−sqrt(((I+IC50+30e−9)^2)−4×30e−9×I)))/((2)(30e−9))). Curve fitting was performed using the program KaleidaGraph (Synergy Software, Reading, Pa.).

T1 sequence (P26663 2420-3010): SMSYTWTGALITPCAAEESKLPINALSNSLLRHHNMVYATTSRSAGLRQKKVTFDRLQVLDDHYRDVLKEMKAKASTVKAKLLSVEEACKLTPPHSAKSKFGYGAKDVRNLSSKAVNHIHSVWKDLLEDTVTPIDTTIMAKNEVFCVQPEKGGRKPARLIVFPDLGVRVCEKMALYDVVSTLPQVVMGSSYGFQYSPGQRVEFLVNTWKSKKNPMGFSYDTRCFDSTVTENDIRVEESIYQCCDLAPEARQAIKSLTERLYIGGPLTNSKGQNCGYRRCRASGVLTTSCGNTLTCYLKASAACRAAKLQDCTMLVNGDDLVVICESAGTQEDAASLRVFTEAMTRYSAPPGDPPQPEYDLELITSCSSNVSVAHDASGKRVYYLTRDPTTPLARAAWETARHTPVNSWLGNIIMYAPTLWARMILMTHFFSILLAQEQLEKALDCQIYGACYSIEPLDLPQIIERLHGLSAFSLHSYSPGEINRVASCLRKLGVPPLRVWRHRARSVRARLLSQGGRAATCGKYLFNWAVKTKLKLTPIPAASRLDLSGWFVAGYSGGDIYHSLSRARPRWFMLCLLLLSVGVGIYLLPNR

Structure (SMILES): O=C1CC(=O)OC(CCc2ccc(Cc3nccs3)c(F)c2)(C2CCCC2)C1 (centres unmarked) [A(77), 6-Cyclopentyl-6-[2-(3-fluoro-4-thiazol-2-ylmethyl-phenyl)-ethyl]-dihydro-pyran-2,4-dione]
- pIC50: 4.62

Structure (SMILES): CCc1cc(CCC2(C3CCCC3)CC(O)=C(Cc3nc4ncc(C)cn4n3)C(=O)O2)c(OC)cc1O (racemic) [A(213), 3-[(6-methyl[1,2,4]triazolo[1,5-a]pyrimidin-2-yl)methyl]-6-cyclopentyl-6-[2-(5-ethyl-4-hydroxy-2-methoxyphenyl)ethyl]-4-hydroxy-5,6-dihydro-2H-pyran-2-one]
- pIC50: 8.35

Structure (SMILES): CCc1cc(CCC2(C3CCCC3)CC(O)=C(Cc3nc4nc(C)cc(C)n4n3)C(=O)O2)ccc1OC (centres unmarked) [B(96), 6-Cyclopentyl-3-(5,7-dimethyl-[1,2,4]triazolo[1,5-a]pyrimidin-2-ylmethyl)-6-[2-(3-ethyl-4-methoxy-phenyl)-ethyl]-4-hydroxy-5,6-dihydro-pyran-2-one]
- pIC50: 8.30

Structure (SMILES): COC(=O)Cc1cccc(CCC2(C3CCCC3)CC(=O)CC(=O)O2)c1 (centres unmarked) [A(67), {3-[2-(2-Cyclopentyl-4,6-dioxo-tetrahydro-pyran-2-yl)-ethyl]-phenyl}-acetic acid methyl ester]
- inhibition at 20 µM: 24%

Structure (SMILES): COc1cc(OC)c(CCC2(C3CCCC3)CC(O)=C(Sc3nnc(-c4cccnc4)n3C)C(=O)O2)cc1Cl (centres unmarked) [C(85), 6-[-(5-chloro-2,4-dimethoxyphenyl)ethyl]-6-cyclopentyl-4-hydroxy-3-[(4-methyl-5-pyridin-3-yl-4H-1,2,4-triazol-3-yl)thio]-5,6-dihydro-2H-pyran-2-one]
- pIC50: 7.46

Structure (SMILES): Cc1ccc(C#CCCC2(C3CCCC3)CC(=O)CC(=O)O2)cc1 (centres unmarked) [F(6), 6-Cyclopentyl-6-(4-p-tolyl-but-3-ynyl)-dihydro-pyran-2,4-dione]
- pIC50: 4.08

Structure (SMILES): CC(C)(C#N)c1ccc(CCC2(C3CCCC3)CC(=O)C(Cc3nc4ncc(Cl)cn4n3)C(=O)O2)cc1F (centres unmarked) [A(111), 2-(4-{2-[5-(6-Chloro-[1,2,4]triazolo[1,5-a]pyrimidin-2-ylmethyl)-2-cyclopentyl-4,6-dioxo-tetrahydro-pyran-2-yl]-ethyl}-2-fluoro-phenyl)-2-methyl-propionitrile]
- pIC50: 8.70

Structure (SMILES): Cc1cnc2nc(CC3=C(O)CC(CCc4cc(F)c(C(C)(C)C#N)c(F)c4)(C4CCCC4)OC3=O)nn2c1 (centres unmarked) [A(143), 2-(4-{2-[2-Cyclopentyl-4-hydroxy-5-(6-methyl-[1,2,4]triazolo[1,5-a]pyrimidin-2-ylmethyl)-6-oxo-3,6-dihydro-2H-pyran-2-yl]-ethyl}-2,6-difluoro-phenyl)-2-methyl-propionitrile]
- pIC50: 8.05

Structure (SMILES): CCc1cc(CCC2(C3CCCC3)CC(=O)CC(=O)O2)cc(CC)c1O (centres unmarked) [A(235), 6-cyclopentyl-6-[2-(3,5-diethyl-4-hydroxyphenyl)ethyl]dihydro-2H-pyran-2,4(3H)-dione]
- pIC50: 6.05

Structure (SMILES): COc1ccc(CCC2(C3CCCC3)CC(O)=C(Sc3nc4ccccc4s3)C(=O)O2)cc1Cl (centres unmarked) [C(45), 3-(1,3-benzothiazol-2-ylthio)-6-[2-(3-chloro-4-methoxyphenyl)ethyl]-6-cyclopentyl-4-hydroxy-5,6-dihydro-2H-pyran-2-one]
- pIC50: 5.49

Structure (SMILES): O=C1CC(=O)OC(CCc2cccc(CCO)c2)(C2CCCC2)C1 (centres unmarked) [A(80), 6-Cyclopentyl-6-{2-[3-(2-hydroxy-ethyl)-phenyl]-ethyl}-dihydro-pyran-2,4-dione]
- pIC50: 4.70

Structure (SMILES): CCc1cc(CCC2(C3CCCC3)CC(O)=C(Cc3nc4ncccn4n3)C(=O)O2)c(OC)cc1O (single isomer, unassigned) [A(209), 6-cyclopentyl-6-[2-(5-ethyl-4-hydroxy-2-methoxyphenyl)ethyl]-4-hydroxy-3-([1,2,4]triazolo[1,5-a]pyrimidin-2-ylmethyl)-5,6-dihydro-2H-pyran-2-one]
- pIC50: 7.30

Structure (SMILES): COc1cc(OC)c(CCC2(C3CCCC3)CC(O)=C(Cc3nc4ccccc4c(=O)[nH]3)C(=O)O2)cc1Cl (centres unmarked) [B(65), 2-({6-[2-(5-Chloro-2,4-dimethoxyphenyl)ethyl]-6-cyclopentyl-4-hydroxy-2-oxo-5,6-dihydro-2H-pyran-3-yl}methyl)quinazolin-4(3H)-one]
- pIC50: 6.96

Structure (SMILES): N#CC1(c2ccc(CCC3(C4CCCC4)CC(=O)CC(=O)O3)cc2)CC1 (centres unmarked) [A(40), 1-{4-[2-(2-Cyclopentyl-4,6-dioxo-tetrahydro-pyran-2-yl)-ethyl]-phenyl}-cyclopropanecarbonitrile]
- pIC50: 5.70

Structure (SMILES): CCC(=O)c1cc(OC)ccc1CCC1(C2CCCC2)CC(=O)CC(=O)O1 (centres unmarked) [A(62), 6-cyclopentyl-6-[2-(4-methoxy-2-propionylphenyl)ethyl]dihydro-2H-pyran-2,4(3H)-dione]
- pIC50: 5.08

Structure (SMILES): CCC(C#N)(CC)c1ccc(CCC2(C3CCCC3)CC(O)=C(Cc3nc4ncc(Cl)cn4n3)C(=O)O2)cc1F (single isomer, unassigned; (-)) [A(267), (−)-2-(4-{2-[5-(6-Chloro-[1,2,4]triazolo[1,5-a]pyrimidin-2-ylmethyl)-2-cyclopentyl-4-hydroxy-6-oxo-3,6-dihydro-2H-pyran-2-yl]-ethyl}-2-fluoro-phenyl)-2-ethyl-butyronitrile]
- pIC50: 8.40

Structure (SMILES): COc1cc(OC)c(CCC2(C3CCCC3)CC(O)=C(Cc3c[nH]c(C)n3)C(=O)O2)cc1Cl (centres unmarked) [B(35), 6-[2-(5-Chloro-2,4-dimethoxy-phenyl)-ethyl]-6-cyclopentyl-4-hydroxy-3-(2-methyl-1H-imidazol-4-ylmethyl)-5,6-dihydro-pyran-2-one]
- pIC50: 7.15

Structure (SMILES): COc1ccc(CCC2(C3CCCC3)CC(O)=C(Cc3nc4nc(C)cc(C)n4n3)C(=O)O2)cc1Cl (centres unmarked) [B(13), 6-[2-(3-Chloro-4-methoxy-phenyl)-ethyl]-6-cyclopentyl-3-(5,7-dimethyl-[1,2,4]triazolo[1,5-a]pyrimidin-2-ylmethyl)-dihydro-pyran-2,4-dione]
- pIC50: 7.70

Structure (SMILES): C[C@@H](NS(C)(=O)=O)c1ccc(CCC2(C3CCCC3)CC(=O)CC(=O)O2)cc1 (some centres unmarked) [A(42), N-(1-{4-[2-(2-Cyclopentyl-4,6-dioxo-tetrahydro-pyran-2-yl)-ethyl]-phenyl}-ethyl)-methanesulfonamide]
- pIC50: 5.10

Structure (SMILES): Cc1cc(C)n2nc(CC3=C(O)CC(CCc4ccc([C@@H](C)O)c(F)c4)(C4CCCC4)OC3=O)nc2n1 (stereo in doubt) [B(114), 6-Cyclopentyl-3-(5,7-dimethyl-[1,2,4]triazolo[1,5-a]pyrimidin-2-ylmethyl)-6-{2-[3-fluoro-4-(1-hydroxy-ethyl)-phenyl]-ethyl}-4-hydroxy-5,6-dihydro-pyran-2-one]
- pIC50: 7.80

Structure (SMILES): CC(C)Oc1ccc(CCC2(C3CCCC3)CC(O)=C(Cc3nc4ccccc4n3C)C(=O)O2)cc1Cl (centres unmarked) [B(27), 6-[2-(3-Chloro-4-isopropoxy-phenyl)-ethyl]-6-cyclopentyl-4-hydroxy-3-(1-methyl-1H-benzoimidazol-2-ylmethyl)-5,6-dihydro-pyran-2-one]
- inhibition at 20 µM: 47%

Structure (SMILES): O=C1CC(=O)OC(CCc2ccc(O)c(Cl)c2)(C2CCCC2)C1 (centres unmarked) [A(95), 6-[2-(3-Chloro-4-hydroxy-phenyl)-ethyl]-6-cyclopentyl-dihydro-pyran-2,4-dione]
- pIC50: 5.68

Structure (SMILES): COc1ccc(CCC2(C3CCCC3)CC(O)=C(Sc3nc4cc(C#N)ccc4[nH]3)C(=O)O2)cc1Cl (centres unmarked) [C(55), 2-({6-[2-(3-chloro-4-methoxyphenyl)ethyl]-6-cyclopentyl-4-hydroxy-2-oxo-5,6-dihydro-2H-pyran-3-yl}thio)-1H-benzimidazole-5-carbonitrile]
- pIC50: 7.52

Structure (SMILES): Cc1cc(C)n2nc(CC3=C(O)CC(CCc4ccc(O)c(Cl)c4)(C4CCCC4)OC3=O)nc2n1 (centres unmarked) [B(95), 6-[2-(3-Chloro-4-hydroxy-phenyl)-ethyl]-6-cyclopentyl-3-(5,7-dimethyl-[1,2,4]triazolo[1,5-a]pyrimidin-2-ylmethyl)-4-hydroxy-5,6-dihydro-pyran-2-one]
- pIC50: 7.89

Structure (SMILES): CC(C)(C#N)c1c(F)cc(CCC2(C3CCCC3)CC(O)=C(Cc3nc4ncc(Cl)cn4n3)C(=O)O2)cc1F (single isomer, unassigned; (+)) [A(259), (+)-2-(4-{2-[5-(6-Chloro-[1,2,4]triazolo[1,5-a]pyrimidin-2-ylmethyl)-2-cyclopentyl-4-hydroxy-6-oxo-3,6-dihydro-2H-pyran-2-yl]-ethyl}-2,6-difluoro-phenyl)-2-methyl-propionitrile]
- pIC50: 8.22

Structure (SMILES): CC(C)(C#N)c1c(F)cc(CCC2(C3CCCC3)CC(O)=C(Cc3nc4ncc(Cl)cn4n3)C(=O)O2)cc1F (single isomer, unassigned; (-)) [A(260), (−)-2-(4-{2-[5-(6-Chloro-[1,2,4]triazolo[1,5-a]pyrimidin-2-ylmethyl)-2-cyclopentyl-4-hydroxy-6-oxo-3,6-dihydro-2H-pyran-2-yl]-ethyl}-2,6-difluoro-phenyl)-2-methyl-propionitrile]
- pIC50: 8.15
